# Test results from patent publication US20090227795A1, “TARGET MOLECULES OF PLADIENOLIDES, COMPOUNDS BINDING TO SUCH TARGET MOLECULES, AND SCREENING METHOD THEREOF” (Eisai R & D Management Co., Ltd., priority 2006, published 2009).
# Tests used:
# HeLa cells = experiment: Observation of intracellular localization of fluorescent probe and competition assay (microscopy, anti-SC-35 staining); assay type: cell-based; details: for fluorescence intensity derived from the fluorescent probe after competition (rank order): 1 μM competitor added 1 hour before 1 μM fluorescent probe, lower intensity = stronger competition
# Protocol: 1 μM of the fluorescent probe produced in Example A2 was added to HeLa cells, and the obtained mixture was incubated at 37° C. in an incubator for 1 hour. Thereafter, the medium was removed, and the remaining culture was further cultured for 1 hour in a fresh medium without probes and non-specifically adsorbed compounds were washed. The medium was removed again. The remaining culture was then washed with PBS. Thereafter, the cells were immobilized in 3.7% formaldehyde in PBS.
# The immobilized cells were well washed with PBS, and were then permeabilized with 0.5% or 1% Triton X-100 in PBS. Thereafter, blocking was carried out with FBS or a blocking solution, and a primary antibody (anti-SC-35 monoclonal antibody; Sigma; S4045) was added to the resultant, so as to carry out a reaction. The reaction product was washed with PBS, and blocking was carried out again with FBS or a blocking solution. A fluorescent-labeled secondary antibody (TexasRed-labeled; Jackson) was added to the resultant, so as to carry out a reaction. The labeled sample was rapidly rinsed with distilled water, and it was then encapsulated into a Prolong antifade reagent (Molecular Probes). Localization of the fluorescent probe and the anti-SC-35 antibody was observed under a fluorescence microscope (DeltaVision, Applied Precision, Inc.) or a confocal microscope (LSM510; Carl Zeiss).
# Furthermore, pladienolides or the derivatives thereof were used in the aforementioned experimental operations to carry out a competition assay. That is, before addition of the fluorescent probe, 1 μM pladienolides or the derivatives thereof were added to the cells, and the obtained mixture was then cultured for 1 hour. Thereafter, the same above operations for immobilization and staining were performed on the culture, followed by observation with a microscope, so as to confirm localization of the fluorescent probe.
# SAP130 = target: T1, SAP130 (Homo sapiens, UniProt O75533+Q15393+Q7RTV0); experiment: Detection of band shift using GFP-fused SAP145 or GFP-fused SAP130 proteins with photoaffinity biotin probe; assay type: binding; details: 1.5 μM probe, HeLa cells stably expressing GFP-SAP145 or GFP-SAP130, band shift
# T1 construct: expressed in transfected cells
# Protocol: SAP145 and SAP130, which were considered to be target molecules, were detected in almost the same position on SDS-PAGE. Thus, strains stably expressing a GFP-fused SAP145 or GFP-fused SAP 130 protein were prepared, and an experiment was then […] out using a photoaffinity biotin probe.
# A 1.5 μM photoaffinity biotin probe was added to HeLa cells stably expressing GFP-SAP145, and the obtained mixture was then cultured for 1 hour. After washing the cells with PBS, M-PER (PIERCE) was then added thereto, followed by stirring at 4° C. for 1 hour. Thereafter, 1/10 vol. of 1.5 M NaCl-0.5% Tween 20 solution was added to the reaction solution, and the obtained mixture was then treated with a vortex (10 sec.×3). The resultant was centrifuged at 15,000 rpm at 4° C. for 5 minutes (TOMY MX-15). The thus obtained supernatant was filtrated with a 0.45-μm membrane, and the filtrate was used in the following immunoprecipitation experiment. […]
# Moreover, using the same samples. SAP145 and SAP130 were detected with the SAP145 antibody and the SAP130 antibody, respectively.
# Furthermore, an agarose resin prepared from probe-untreated cells was treated with a probe in the aforementioned experimental operations. Thereafter, UV irradiation and elution of a protein were carried out by the same operations as above, and it was examined whether or not the same band was detected in the obtained sample. […]
# SAP145 or SAP130 = target: T2, SAP145 or SAP130 (Homo sapiens, UniProt O75533+Q15393+Q7RTV0); experiment: Detection of bound protein by treatment with photoaffinity biotin probe (immunoprecipitation, UV crosslinking, streptavidin-HRP); assay type: binding; details: 1.5 μM probe, MDA-MB-468 2000 g-pellet, all antibodies, SDS-PAGE
# T2 construct: endogenous in cells; host or cells: MDA-MB-468 (nuclear fraction, immunoprecipitate)
# Protocol: 2000 g-pellet was prepared from MDA-MB-468 cells by the method described in Example B1. This pellet was suspended in a CSK buffer (300 mM sucrose, 100 mM NaCl, 3 mM MgCl2, 10 mM PIPES, pH=7.0, protease inhibitor cocktail), and the obtained suspension was then treated with the 1.5 μM photoaffinity biotin probe synthesized in Example A3. The suspension was left at rest at 4° C. for 1 hour, and it was then centrifuged at 2000 g at 4° C. for 10 minutes. The supernatant was removed, and a nuclear fraction was then prepared from the obtained precipitate by the same method as that described in Example B1. Thereafter, an immunoprecipitation solution was prepared by the sable method as that described in Example B4.
# UV (365 nm and 302 nm) was applied to the obtained immunoprecipitate (agarose resin), and a crosslinking reaction was carried out. An SDS […] buffer was added to the reaction product, and the obtained mixture was then stirred with a vortex, followed by boiling at 99° C. for 10 minutes, so as to elute the immunoprecipitated proteins. The eluant was subjected to SDS-PAGE and blotting onto a PVDF membrane in accordance with common methods. Thereafter, the resultant was treated with streptavidin-HRP, so as to detect probe-bound proteins. […]
# [1] = system: human breast cancer cells MDA-MB-468; experiment: Intracellular distribution of tritium probe compound (cell fractionation, cold inhibition, charcoal assay); assay type: cell-based
# Protocol: The tritiated probe compound produced in Example A1 was added to human breast cancer cells MDA-MB-468 (ATCC HTB-132) cultured on a 15-cm dish (>80% confluent), resulting in a concentration of 3 to 30 nM. The obtained mixture was then cultured in an incubator at 37° C. for 1 hour. After removing the medium, the culture was then washed with a Hanks' balanced salt solution (10 ml×2). Then, 3 ml of a 10% glycerol hypotonic buffer (10% glycerol, 20 mM NaCl, 1 mM EDTA, 10 mM Tris-HCl, pH=7.8, protease inhibitor cocktail) was added to the resultant. The obtained mixture was left at rest for a while, and the cells were then recovered using a cell scraper. A cell lysate was prepared using a Dounce homogenizer.
# The lysate was centrifuged at 2,000 g at 4° C. for 10 minutes, so as to obtain a supernatant (2000 g-sup.) and a precipitate (2000 g-pellet). 2000 g-sup. was further centrifuged at 100,000 g at 4° C. for 60 minutes, so as to obtain a cytosol fraction as a supernatant, and a membrane fraction as a precipitate. 2000 g-pellet was suspended in 0.5 M NaCl, and the suspension was then left at rest for 30 minutes under cooling on ice, so as to elute a nuclear protein. Thereafter, centrifugation was carried out at 3,000 g at 4° C. for 10 minutes, so as to obtain a nuclear fraction as a supernatant, and a nuclear pellet as a precipitate.
# The radioactivity of a tritium probe existing in each fraction was measured by the following method. That is, each of the cytosol fraction and the nuclear fraction was uniformly mixed with Hionic-Fluor (Perkin Elmer). On the other hand, each of the membrane fraction and the nuclear pellet was dissolved in Soluene-350 (Packard) (1 ml), and the obtained solution was then mixed with Hionic-Fluor. The radioactivity of each mixture was measured with a liquid scintillation counter.
# At the same time, a radioisotope-non-labeled-pladienolide was used to carry out a cold inhibition experiment. That is, the cells were treated with a pladienolide having a concentration (0.15 to 1.5 μM) that was 50 times higher than the tritium probe treatment concentration, and they were then cultured at 37° C. in an incubator for 1 hour. Thereafter, the culture was treated with a tritium probe, and each fraction was prepared. Then, the radioactivity thereof was measured.
# That is, 1/10 vol. (volume ratio) of a 10% activated charcoal suspension was added to each of the cytosol fraction and the nuclear fraction, followed by a treatment with a vortex for several seconds. The resultant was centrifuged at 15,000 rpm at 4° C. for 5 minutes (TOMY mini MX-15), and the radioactivity of the supernatant was measured in the same manner as that described above.
# U2 snRNP complex = target: T3, U2 snRNP complex (Homo sapiens, UniProt O75533+Q15393+Q7RTV0); experiment: Immunoprecipitation experiment of nuclear fraction prepared from tritium probe-treated cells; assay type: binding; details: 30 nM probe, MDA-MB-468 nuclear fraction, TMG, U1A/U2B″, SM BB′ & D1, SAP155, SAP145, cyclin E antibodies
# T3 construct: endogenous in cells; host or cells: MDA-MB-468
# Protocol: MDA-MB-468 cells were cultured in the presence of a 30 nM tritium probe for 1 hour. Thereafter, a nuclear fraction was prepared by the same method as that described in Example B1. A dilution buffer was added to the nuclear fraction to a final concentration of 0.15 M NaCl, 0.05% CA-630 and 40 mM tris-HCl (pH=7.5), so as to prepare an immunoprecipitation solution.
# To this solution, each of antibodies reacting with splicing factors, transcriptional factors, or molecules associated with such factors were added to a concentration of 1 μg/ml. The obtained mixture was slowly stirred for approximately 12 hours in a low-temperature chamber of 4° C., using a sample rotator. Thereafter, 20 μl of 50% Protein A/G-agarose conjugate suspension was added to the reaction solution, and the obtained mixture was further stirred for 2 hours in the low-temperature chamber.
# The agarose resin was recovered, and it was then washed with a washing solution (0.15 M NaCl, 0.05% CA-630, 20 mM tris-HCl, pH=7.5). An SDS sample buffer was added to the resultant solution, and the obtained mixture was then stirred with a vortex. The reaction solution was boiled at 99° C. for 10 minutes, so as to elute the immunoprecipitated protein. The eluant was mixed homogeneously with Hionic-Fluor, and the radioactivity of a tritium probe existing in the eluant was then measured with a liquid scintillation counter.
compound,measurement,setting,value
"CCC(O)C(C)C1OC1CC(C)C=CC=C(C)C1OC(=O)CC(O)CCC(C)(O)C(OC(=O)NCCOCCOCCNC(=O)CCCCC2=[N+]3C(=Cc4c(C)cc(C)n4[B-]3(F)F)C=C2)C=CC1C (centres unmarked) [fluorescent probe, 7-(N-(2-(2-(2-(N-(5-(5,5-difluoro-7,9-dimethyl-5H-dipyrrolo[1,2-c:2′,1′-f][1,3,2]diazaborinin-4-ium-5-uid-3-yl)pentanoyl)amino)ethoxy)ethoxy)ethyl)carbamoyloxy)-3,6,21-trihydroxy-6,10,12,16,20-pentamethyl-18,19-epoxytricosa-8,12,14-trien-11-olide]",intracellular localization of fluorescent probe,"HeLa cells; 1 μM probe, 1 hour, co-staining with anti-SC-35 antibody",mainly localized in granular structures in the nuclei
"CCC(O)C(C)C1OC1CC(C)/C=C/C=C(\C)C1OC(=O)CC(O)CCC(C)(O)C(OC(=O)NCCCC[C@H](NC(=O)c2ccc(C3(C(F)(F)F)NN3)cc2)C(=O)N(C)CCN(C)C(=O)CCCC[C@@H]2SC[C@@H]3NC(=O)N[C@@H]32)/C=C/C1C (stereo partly drawn) [photoaffinity biotin probe, (8E,2E,14E)-3,621-trihydroxy-6,10,12,16,20-pentamethyl-7-(N-((5S)-6-(N-methyl-N-(2-(N-methyl-N-(5-((3aS,4S,6aR)-2-oxohexahydro-1H-thieno[3,4-d]imidazol-4-yl)pentanoyl)amino)ethyl)amino)-6-oxo-5-(N-(4-(3-(trifluoromethyl)-3H-diaziren-3-yl)benzoyl)amino)hexyl)carbamoyloxy)-18,19-epoxytricosa-8,12,14-trien-11-olide]",protein to which the probe has bound,SAP130,not SAP145 but SAP130
same,position of band of probe-bound protein,SAP145 or SAP130,130-140 kDa
CCC(O)C(C)C1OC1CC(C)/C=C/C=C(\C)C1OC(=O)CC(O)CCC(C)(O)C(O)/C=C/C1C (centres unmarked) [pladienolide A],fluorescence intensity derived from the fluorescent probe after competition (rank order),HeLa cells,pladienolide A >non-labeled tritium probe compound >pladienolides B and D
"CCC(O)C(C)C1OC1CC(C)/C=C/C=C(\C)C1OC(=O)CC(O)CCC(C)(O)C(OC(C)=O)/C=C/C1C (centres unmarked) [pladienolide B, reference compound]",radioactivity of tritium probe after pre-treatment with non-labeled pladienolide (cold inhibition),"[1]; pre-treatment at 50 times the tritium probe concentration (0.15 to 1.5 μM), 1 hour",almost completely disappeared
same,fluorescence intensity derived from the fluorescent probe after competition (rank order),HeLa cells,pladienolide A >non-labeled tritium probe compound >pladienolides B and D
"(8E,12E,14E)-7-(N—[G-^3H]ethylcarbamoyloxy)-3,6,21-trihydroxy-6,10,12,16,20-pentamethyl-18,19-epoxytricosa-8,12,14-trien-11-olide [tritium probe]",radioactivity of tritium probe existing in each cell fraction,"[1]; MDA-MB-468 cells, probe 3 to 30 nM, 1 hour, cytosol, membrane, nuclear fraction, nuclear pellet",highest radioactivity of the tritium probe was detected in the nuclear fraction
same,radioactivity of the cytosol fraction after treatment with activated charcoal,"[1]; charcoal assay, cytosol fraction",almost all the radioactivity of the cytosol fraction disappeared
same,radioactivity in the nuclear fraction after treatment with activated charcoal,"[1]; charcoal assay, nuclear fraction",did not disappear
same,radioactivity of tritium probe co-immunoprecipitated with antibodies,U2 snRNP complex,specific radioactivity was observed
pladienolide D,fluorescence intensity derived from the fluorescent probe after competition (rank order),HeLa cells,pladienolide A >non-labeled tritium probe compound >pladienolides B and D
